Measurements published in the supplement of paper PMC10307832.

Compound: CC1(C)CCC(CN2CCN(c3ccc(C(=O)NS(=O)(=O)c4ccc(NCC5CCOCC5)c([N+](=O)[O-])c4)c(Oc4cnc5[nH]ccc5c4)c3)CC2)=C(c2ccc(Cl)cc2)C1 [Venetoclax]
Assay: relative viability (nuclei count vs DMSO), 5 days (fraction); higher = more cells survive
Conditions: 1 µM
Procedure, shortened: (§1)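 Five library-drug doses spaced by √10 were pinned onto vehicle-anchored 1536-well plates of lung cancer cell lines that had been kept overnight at 37 °C. Cells went 5 days without medium change, then were fixed, permeabilised and Hoechst-stained together, imaged at 4× and counted by MetaXpress. Viability is the ratio of treated-well to vehicle-well nuclei, taken as a median over plates. Plates required control CV below 25% and at least one doubling.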

With HCC-78 as the cell line, how does the relative viability read?
The relative viability was 0.942.

For A549, which relative viability is on record?
Its relative viability is 0.937.

How did the relative viability turn out when NCI-H1299 was run?
The relative viability was 0.949.

With BEN as the cell line, how does the relative viability read?
The relative viability was 0.941.

Which relative viability does the source give for HCC-15 here?
The relative viability was 0.909.

How did the relative viability turn out when HCC-827 was run?
Its relative viability is 1.04.

For NCI-H460, which relative viability is on record?
The relative viability was 0.923.

For LU99A, which relative viability is on record?
The relative viability was 0.994.

With NCI-H2085 as the cell line, how does the relative viability read?
Its relative viability is 0.928.

How did the relative viability turn out when A-427 was run?
Its relative viability is 0.998.

Which relative viability does the source give for NCI-H520 here?
Its relative viability is 1.

Which relative viability does the source give for NCI-H838 here?
The relative viability was 0.906.

NCI-H1792 was tested. Which relative viability did it give?
Its relative viability is 0.856.

Which relative viability does the source give for NCI-H596 here?
The relative viability was 0.888.

How did the relative viability turn out when NCI-H3122 was run?
Its relative viability is 0.983.

Which relative viability does the source give for NCI-H1395 here?
Its relative viability is 0.922.

With 201T as the cell line, how does the relative viability read?
The relative viability was 0.982.

Compound: Cn1cnc2c(F)c(Nc3ccc(Br)cc3Cl)c(C(=O)NOCCO)cc21 [Selumetinib]
Assay: as above
Conditions: 0.02 µM
Procedure, shortened: as §1

How did the relative viability turn out when EMC-BAC-2 was run?
The relative viability was 1.38.

NCI-H2126 was tested. Which relative viability did it give?
The relative viability was 0.932.

Calu-6 was tested. Which relative viability did it give?
The relative viability was 1.04.

HCC-44 was tested. Which relative viability did it give?
The relative viability was 1.

How did the relative viability turn out when NCI-H1734 was run?
The relative viability was 1.

With NCI-H650 as the cell line, how does the relative viability read?
The relative viability was 1.1.

With LK-2 as the cell line, how does the relative viability read?
Its relative viability is 1.08.

NCI-H2228 was tested. Which relative viability did it give?
The relative viability was 0.898.

How did the relative viability turn out when SK-MES-1 was run?
Its relative viability is 0.921.

For HARA, which relative viability is on record?
Its relative viability is 0.903.

For COR-L23, which relative viability is on record?
The relative viability was 1.09.

COR-L 105 was tested. Which relative viability did it give?
Its relative viability is 0.713.

For LC-2-ad, which relative viability is on record?
Its relative viability is 0.948.

With LXF-289 as the cell line, how does the relative viability read?
The relative viability was 0.948.

With NCI-H2170 as the cell line, how does the relative viability read?
Its relative viability is 0.982.

NCI-H322M was tested. Which relative viability did it give?
The relative viability was 0.83.

How did the relative viability turn out when IA-LM was run?
The relative viability was 0.776.

With HCC-78 as the cell line, how does the relative viability read?
The relative viability was 0.924.

For A549, which relative viability is on record?
Its relative viability is 0.864.

For NCI-H1299, which relative viability is on record?
The relative viability was 1.04.

With BEN as the cell line, how does the relative viability read?
The relative viability was 0.934.

Which relative viability does the source give for HCC-15 here?
Its relative viability is 0.844.

For HCC-827, which relative viability is on record?
Its relative viability is 1.03.

NCI-H460 was tested. Which relative viability did it give?
The relative viability was 0.963.

How did the relative viability turn out when LU99A was run?
The relative viability was 1.01.

Which relative viability does the source give for NCI-H2085 here?
Its relative viability is 0.863.

For A-427, which relative viability is on record?
Its relative viability is 1.1.

How did the relative viability turn out when NCI-H520 was run?
Its relative viability is 1.12.

How did the relative viability turn out when NCI-H838 was run?
The relative viability was 0.853.

Which relative viability does the source give for NCI-H1792 here?
Its relative viability is 0.901.

NCI-H596 was tested. Which relative viability did it give?
The relative viability was 0.9.

With NCI-H3122 as the cell line, how does the relative viability read?
Its relative viability is 0.846.

With NCI-H1395 as the cell line, how does the relative viability read?
Its relative viability is 0.984.

Which relative viability does the source give for 201T here?
Its relative viability is 0.94.

Same assay, conditions: 0.06325 µM

With EMC-BAC-2 as the cell line, how does the relative viability read?
Its relative viability is 1.16.

How did the relative viability turn out when NCI-H2126 was run?
The relative viability was 0.883.

With Calu-6 as the cell line, how does the relative viability read?
The relative viability was 0.777.

How did the relative viability turn out when HCC-44 was run?
Its relative viability is 1.01.

How did the relative viability turn out when NCI-H1734 was run?
Its relative viability is 0.936.

Which relative viability does the source give for NCI-H650 here?
The relative viability was 1.09.

How did the relative viability turn out when LK-2 was run?
The relative viability was 1.05.

With NCI-H2228 as the cell line, how does the relative viability read?
Its relative viability is 0.958.

SK-MES-1 was tested. Which relative viability did it give?
Its relative viability is 0.885.

How did the relative viability turn out when HARA was run?
Its relative viability is 0.819.

With COR-L23 as the cell line, how does the relative viability read?
Its relative viability is 1.03.

For COR-L 105, which relative viability is on record?
The relative viability was 0.572.

Which relative viability does the source give for LC-2-ad here?
The relative viability was 0.896.

With LXF-289 as the cell line, how does the relative viability read?
Its relative viability is 0.932.

For NCI-H2170, which relative viability is on record?
The relative viability was 0.97.

With NCI-H322M as the cell line, how does the relative viability read?
Its relative viability is 0.681.

How did the relative viability turn out when IA-LM was run?
The relative viability was 0.442.

With HCC-78 as the cell line, how does the relative viability read?
The relative viability was 0.853.

With A549 as the cell line, how does the relative viability read?
Its relative viability is 0.669.

Which relative viability does the source give for NCI-H1299 here?
Its relative viability is 1.03.

BEN was tested. Which relative viability did it give?
The relative viability was 1.02.

HCC-15 was tested. Which relative viability did it give?
The relative viability was 0.64.

Which relative viability does the source give for HCC-827 here?
The relative viability was 1.06.

How did the relative viability turn out when NCI-H460 was run?
The relative viability was 0.801.

How did the relative viability turn out when LU99A was run?
The relative viability was 1.05.

How did the relative viability turn out when NCI-H2085 was run?
Its relative viability is 0.844.

Which relative viability does the source give for A-427 here?
The relative viability was 0.994.

How did the relative viability turn out when NCI-H520 was run?
Its relative viability is 0.981.

For NCI-H838, which relative viability is on record?
The relative viability was 0.863.

NCI-H1792 was tested. Which relative viability did it give?
The relative viability was 0.728.

For NCI-H596, which relative viability is on record?
Its relative viability is 0.881.

For NCI-H3122, which relative viability is on record?
Its relative viability is 0.75.

With NCI-H1395 as the cell line, how does the relative viability read?
The relative viability was 0.85.

For 201T, which relative viability is on record?
The relative viability was 0.901.

Same assay, conditions: 0.2 µM

EMC-BAC-2 was tested. Which relative viability did it give?
Its relative viability is 1.06.

NCI-H2126 was tested. Which relative viability did it give?
Its relative viability is 0.857.

How did the relative viability turn out when Calu-6 was run?
The relative viability was 0.677.

How did the relative viability turn out when HCC-44 was run?
Its relative viability is 1.04.

Which relative viability does the source give for NCI-H1734 here?
Its relative viability is 0.928.

NCI-H650 was tested. Which relative viability did it give?
Its relative viability is 1.39.

LK-2 was tested. Which relative viability did it give?
The relative viability was 0.88.

Which relative viability does the source give for NCI-H2228 here?
The relative viability was 0.943.

With SK-MES-1 as the cell line, how does the relative viability read?
Its relative viability is 0.698.

With HARA as the cell line, how does the relative viability read?
Its relative viability is 0.824.

For COR-L23, which relative viability is on record?
The relative viability was 1.07.

With COR-L 105 as the cell line, how does the relative viability read?
The relative viability was 0.672.

LC-2-ad was tested. Which relative viability did it give?
The relative viability was 0.885.

LXF-289 was tested. Which relative viability did it give?
Its relative viability is 0.835.

NCI-H2170 was tested. Which relative viability did it give?
Its relative viability is 0.896.

With NCI-H322M as the cell line, how does the relative viability read?
Its relative viability is 0.651.

How did the relative viability turn out when IA-LM was run?
Its relative viability is 0.246.

How did the relative viability turn out when HCC-78 was run?
The relative viability was 0.802.

With A549 as the cell line, how does the relative viability read?
Its relative viability is 0.656.

NCI-H1299 was tested. Which relative viability did it give?
The relative viability was 1.02.

Which relative viability does the source give for BEN here?
The relative viability was 0.863.

For HCC-15, which relative viability is on record?
Its relative viability is 0.487.

HCC-827 was tested. Which relative viability did it give?
Its relative viability is 0.994.

NCI-H460 was tested. Which relative viability did it give?
The relative viability was 0.823.

Which relative viability does the source give for LU99A here?
The relative viability was 0.91.

How did the relative viability turn out when NCI-H2085 was run?
Its relative viability is 0.881.

A-427 was tested. Which relative viability did it give?
The relative viability was 1.03.

How did the relative viability turn out when NCI-H520 was run?
Its relative viability is 1.08.

Which relative viability does the source give for NCI-H838 here?
Its relative viability is 0.854.

NCI-H1792 was tested. Which relative viability did it give?
The relative viability was 0.827.

NCI-H596 was tested. Which relative viability did it give?
Its relative viability is 0.889.

Which relative viability does the source give for NCI-H3122 here?
Its relative viability is 0.697.

With NCI-H1395 as the cell line, how does the relative viability read?
Its relative viability is 0.892.

201T was tested. Which relative viability did it give?
The relative viability was 0.91.

Same assay, conditions: 0.6325 µM

Which relative viability does the source give for EMC-BAC-2 here?
Its relative viability is 1.13.

Which relative viability does the source give for NCI-H2126 here?
The relative viability was 0.77.

Which relative viability does the source give for Calu-6 here?
The relative viability was 0.478.

HCC-44 was tested. Which relative viability did it give?
The relative viability was 1.1.

With NCI-H1734 as the cell line, how does the relative viability read?
The relative viability was 0.919.

For NCI-H650, which relative viability is on record?
Its relative viability is 1.26.

How did the relative viability turn out when LK-2 was run?
Its relative viability is 1.04.

How did the relative viability turn out when NCI-H2228 was run?
Its relative viability is 0.797.

Which relative viability does the source give for SK-MES-1 here?
The relative viability was 0.527.

Which relative viability does the source give for HARA here?
Its relative viability is 0.718.

With COR-L23 as the cell line, how does the relative viability read?
Its relative viability is 0.99.

COR-L 105 was tested. Which relative viability did it give?
Its relative viability is 0.55.

How did the relative viability turn out when LC-2-ad was run?
The relative viability was 0.899.

How did the relative viability turn out when LXF-289 was run?
Its relative viability is 0.778.

How did the relative viability turn out when NCI-H2170 was run?
The relative viability was 0.937.

NCI-H322M was tested. Which relative viability did it give?
The relative viability was 0.624.

With IA-LM as the cell line, how does the relative viability read?
Its relative viability is 0.186.

With HCC-78 as the cell line, how does the relative viability read?
The relative viability was 0.91.

A549 was tested. Which relative viability did it give?
Its relative viability is 0.449.

How did the relative viability turn out when NCI-H1299 was run?
The relative viability was 0.889.

BEN was tested. Which relative viability did it give?
The relative viability was 0.938.

For HCC-15, which relative viability is on record?
The relative viability was 0.389.

With HCC-827 as the cell line, how does the relative viability read?
The relative viability was 0.941.

NCI-H460 was tested. Which relative viability did it give?
Its relative viability is 0.545.

How did the relative viability turn out when LU99A was run?
The relative viability was 0.912.

NCI-H2085 was tested. Which relative viability did it give?
Its relative viability is 0.788.

With A-427 as the cell line, how does the relative viability read?
The relative viability was 1.05.

For NCI-H520, which relative viability is on record?
The relative viability was 1.04.

With NCI-H838 as the cell line, how does the relative viability read?
Its relative viability is 0.743.

With NCI-H1792 as the cell line, how does the relative viability read?
Its relative viability is 0.689.

How did the relative viability turn out when NCI-H596 was run?
The relative viability was 0.729.

With NCI-H3122 as the cell line, how does the relative viability read?
Its relative viability is 0.67.

For NCI-H1395, which relative viability is on record?
The relative viability was 0.845.

How did the relative viability turn out when 201T was run?
The relative viability was 0.888.
